Source: patent publication EP0537993A1, “Nicotinic activity of a series of arecolones and isoarecolones” (ELI LILLY AND COMPANY, priority 1991, dated 1993)
Structures can show the parent of a compound that is named as a salt.

What was measured:
[1] = test system: rats; settings: cited from earlier work
[2] = test system: nicotinic and muscarinic receptors; settings: cited from earlier work
[3] = target: muscarinic receptors; assay: Inhibition of 3H-oxotremorine-M binding to hippocampal membranes; settings: [3H]oxotremorine ([3H]OXO) binding, muscarinic receptor affinity, rat membranes
Description: The hippocampus from male Sprague-Dawley rats was homogenized in 10 volumes of 0.32 M sucrose, centrifuged at 1000 x g for 10 min, and the supernatant was centrifuged at 17,000 x g for 20 min. The synaptosoma! fraction (P₂) pellet was homogenized in 50 volumes of 20 mM Tris-Cl buffer, pH 7.4, and centrifuged at 50,000 x g for 10 min. After resuspension in buffer, the suspension was preincubated for 30 min at 4 °C, and centrifuged again. The pellet was resuspended in 3 volumes of buffer and frozen at -70 °C until used.
For oxotremorine-M binding, the homogenates were incubated at 25 °C for 15 min. After incubation, the homogenates were filtered through Whatman GF/C filters with vacuum. The filters were rinsed 3X with 1 mL of cold buffer and placed in scintillation vials containing Ready Protein+ (Beckman) scintillation fluid. Radioactivity trapped on the filters was determined by liquid scintillation spectrometry. Non specific binding was determined using 1 µM atropine.
The concentration of compound required to inhibit binding 50% (IC₅₀) was calculated using the ALLFIT program.

[4] = target: nicotinic receptors (Rattus norvegicus, UniProt P09483+P12390); assay: [3H]N-methyl-carbamyl choline ([3H]MCC) binding to rat brain cortical membranes; settings: selectivity for nicotinic over muscarinic receptors
Description: Binding to rat brain nicotinic receptors was performed using the method of Abood and Grassi. Abood, L.E. et al., Biochem. Pharmacol. 35:4199-4202 (1987). Frozen rat brain cortices (Pel-Freez Biologicals, Roger, AR) were homogenized using a Polytron (Binkmann PT-10; setting 6 for 15 sec) in 30 volumes of buffer (50 mM tris, 120 mM sodium chloride, 5 mM potassium chloride, 2 mM calcium chloride, 1 mM magnesium chloride, pH 7.3 at 4°C). The homogenate was centrifuged at 1,000 xg for 10 min. (Sorval RC-5B; SA600 rotor). The supernatant was then centrifuged at 40,000 xg for 20 min. The final pellet was resuspended in buffer at a concentration of 12 vol./gram wet weight of tissue. Final protein concentrations for each assay were determined using the Lowry et al. method. Lowry, O.H. et al., J. Biol. Chem. 193:265-275 (1951).
[³H]N-Methyl-carbamyl choline iodide ([³H]MCC) binding to rat cortices was measured by filtration. Compounds dissolved in distilled water at concentrations of 1 nM to 1 mM, were incubated with [³H]MCC (1 nM), membrane aliquots (approximately 1.5 mg./ml. protein) and buffer, in a final volume of 0.5 ml. […] Nonspecific [³H]MCC binding was determined in the presence of 10 mM nicotine. […]
Radioactivity bound was determined after a period of equilibration (at least 5 hr) in Beckman Ready Protein Scintillation Cocktail using a Beckman LS5000 TA counter with an efficiency of 43%. […]

Sequence of nicotinic receptors (P09483 31-630): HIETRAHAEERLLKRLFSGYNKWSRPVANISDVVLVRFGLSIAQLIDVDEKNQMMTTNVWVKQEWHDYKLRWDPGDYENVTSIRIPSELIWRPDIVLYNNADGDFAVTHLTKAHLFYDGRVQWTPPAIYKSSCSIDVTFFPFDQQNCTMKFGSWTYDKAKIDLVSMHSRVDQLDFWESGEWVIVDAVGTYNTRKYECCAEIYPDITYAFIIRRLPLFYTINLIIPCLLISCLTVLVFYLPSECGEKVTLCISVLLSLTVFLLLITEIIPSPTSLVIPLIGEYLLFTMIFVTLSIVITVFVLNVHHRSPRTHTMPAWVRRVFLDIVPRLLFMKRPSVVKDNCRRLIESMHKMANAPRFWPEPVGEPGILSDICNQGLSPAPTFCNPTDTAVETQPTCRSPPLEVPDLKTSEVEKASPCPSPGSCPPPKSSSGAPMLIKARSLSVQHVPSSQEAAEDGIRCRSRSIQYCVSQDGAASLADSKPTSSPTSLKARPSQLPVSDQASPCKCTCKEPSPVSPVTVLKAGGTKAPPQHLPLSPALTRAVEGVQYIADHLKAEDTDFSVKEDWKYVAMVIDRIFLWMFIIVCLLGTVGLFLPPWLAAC
Sequence of nicotinic receptors (P12390 25-500): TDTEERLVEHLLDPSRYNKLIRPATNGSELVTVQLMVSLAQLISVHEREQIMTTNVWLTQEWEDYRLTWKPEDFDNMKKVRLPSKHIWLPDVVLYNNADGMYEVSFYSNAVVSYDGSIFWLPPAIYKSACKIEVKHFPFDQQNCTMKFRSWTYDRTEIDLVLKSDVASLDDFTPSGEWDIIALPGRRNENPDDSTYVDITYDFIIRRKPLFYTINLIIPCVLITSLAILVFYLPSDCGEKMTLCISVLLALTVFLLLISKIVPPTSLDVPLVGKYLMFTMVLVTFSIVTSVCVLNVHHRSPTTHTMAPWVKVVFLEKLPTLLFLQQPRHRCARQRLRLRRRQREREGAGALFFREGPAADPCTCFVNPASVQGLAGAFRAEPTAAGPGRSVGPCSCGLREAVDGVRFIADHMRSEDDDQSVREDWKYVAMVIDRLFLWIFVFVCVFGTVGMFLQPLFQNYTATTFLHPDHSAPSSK

Row | Compound | nicotine-like discriminative stimulus effects [1] | agonist which binds to nicotinic and muscarinic receptors [2] | Ki [3] [µM] | Ki Ratio OXO/MCC [4]
1 | 1-methyl-4-acetyl-1,2,3,6-tetrahydropyridine [isoarecolone methiodide] | produce nicotine-like discriminative stimulus effects | very potent agonist | – | –
2 | CN1CC=C(C(=O)C(C)(C)C)CC1 [Example 12, 1-(1,2,3,6-Tetrahydro-1-methyl-4-pyridinyl)-2,2-dimethylpropanone] | – | – | 6.25 | 110
3 | CCC(C)C(=O)C1=CCN(C)CC1 (stereo not drawn) [Example 11, 1-(1,2,3.6-Tetrahydro-1-methyl-4-pyridinyl)-2-methylbutanone] | – | – | 4.79 | –
4 | CC(=O)C1=CCN(C)CC1 [isoarecolone HCl] | produce nicotine-like discriminative stimulus effects | – | – | –
